This passage reports T1/2 and IC50 results from ChEMBL document CHEMBL5154908, “Design, Synthesis, and Biological Characterization of Inhaled p38α/β MAPK Inhibitors for the Treatment of Lung Inflammatory Diseases” (J Med Chem, 2022).

What is called pIC50 is the negative decadic logarithm of the IC50, by convention in mol/L.

In assay [1] the target is T1, Mitogen-activated protein kinase 14 (Homo sapiens, UniProt Q16539). The assay can be described thus: Displacement of SKF-86002 from human inactivated p38alpha assessed as dissociation half life incubated for 2 hrs by fluorescence based analysis.
T1 sequence (Q16539 whole entry): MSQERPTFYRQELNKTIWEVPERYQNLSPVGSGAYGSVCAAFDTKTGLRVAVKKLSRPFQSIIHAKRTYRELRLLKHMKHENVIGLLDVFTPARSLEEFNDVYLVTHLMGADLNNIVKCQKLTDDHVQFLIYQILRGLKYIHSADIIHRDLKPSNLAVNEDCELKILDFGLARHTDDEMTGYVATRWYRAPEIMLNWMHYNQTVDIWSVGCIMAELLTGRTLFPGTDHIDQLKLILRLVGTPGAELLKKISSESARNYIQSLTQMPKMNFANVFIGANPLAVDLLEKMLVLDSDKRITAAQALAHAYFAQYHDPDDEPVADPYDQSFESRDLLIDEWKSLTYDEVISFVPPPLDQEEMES
Assay [2] addresses T1, Mitogen-activated protein kinase 14. As to the kind of experiment: Inhibition of human recombinant full length GST-tagged p38alpha expressed in Escherichia coli preincubated for 2 hrs followed by ATP addition and measured after 1 hr by Alpha screen assay.
Assay [3] is described as follows: Inhibition of LPS-stimulated TNFalpha release in human PBMC cells preincubated for 1 hr followed by LPS stimulation and measured after 18 hrs. Format: functional, cell-based.

pIC50: −log10 of the molar value.

Turning to `CN(C)CCOc1cccc(-n2nc(C(C)(C)C)cc2NC(=O)N[C@H]2CC[C@@H](Oc3ccc4nnc(N5CCCCC5)n4c3)c3ccccc32)c1`, the T1/2 in assay [1] is 3.6 h. The values for the pIC50 in assay [2] and in assay [3] were 9.22 and 8.89, respectively.
Taken in the same sequence, the figures for `CCN(C)CCn1cc(-n2nc(C(C)(C)C)cc2NC(=O)N[C@H]2CC[C@@H](Oc3ccc4nnc(N5CCCC[C@@H]5C)n4c3)c3ccccc32)cn1` were 9 h, 9.70 and 8.60.
The matching figures for `CC(C)c1nnc2ccc(O[C@@H]3CC[C@H](NC(=O)Nc4cc(C(C)(C)C)nn4-c4ccc(O)c(Cl)c4)c4ccccc43)cn12`: 1.31 h, 10.10 and 8.96.
Taken in the same sequence, the figures for `Cc1ccc(-n2nc(C(C)(C)C)cc2NC(=O)N[C@H]2CC[C@@H](Oc3ccc4nnc(N5CCCC5)n4c3)c3ccccc32)cc1` were over 16 h, 9.30 and 9.52.
As for `Cc1ccc(-n2nc(C(C)(C)C)cc2NC(=O)N[C@H]2CC[C@@H](Oc3ccc4nnc(N5CCOCC5)n4c3)c3ccccc32)cc1`, the T1/2 in assay [1] was 5.8 h. Besides, the results for the negative-log IC50 (pIC50) in assay [2] and in assay [3] were 8.96 and 9.05, respectively.
The matching figures for `CC(C)(C)c1cc(NC(=O)N[C@H]2CC[C@@H](Oc3ccc4nnc(N5CCCCC5)n4c3)c3ccccc32)n(-c2cccc(CO)c2)n1`: over 16 h, 9.22 and 9.70.
The matching figures for `C[C@H]1CCCCC1c1nnc2ccc(O[C@@H]3CC[C@H](NC(=O)Nc4cc(C(C)(C)C)nn4-c4cccc(CN5CCN(C)CC5)c4)c4ccccc43)cn12` (stereo partly specified): over 16 h, 9.52 and 9.00.
As to `C[C@H]1CCCCN1c1nnc2ccc(O[C@@H]3CC[C@H](NC(=O)Nc4cc(C(C)(C)C)nn4-c4cncc(OCCN(C)C)c4)c4ccccc43)cn12`, in assay [1], the T1/2 was 5 h. In addition, the results for the pIC50 in assay [2] and in assay [3] were 10.52 and 9.00, respectively.
As to `Cc1ccc(-n2nc(C(C)(C)C)cc2NC(=O)N[C@H]2CC[C@H](Oc3ccc4nnc(C(C)C)n4c3)c3ccccc32)cc1`, the T1/2 in assay [1] is over 16 h. For the same compound, the pIC50 in assay [2] and in assay [3] was 10.00 in each case.
Consider `CC(C)c1nnc2ccc(O[C@@H]3CC[C@H](NC(=O)Nc4cc(C(C)(C)C)nn4C)c4ccccc43)cn12`, for which the T1/2 in assay [1] was 0.07 h. The pIC50 was 9.52 in assay [2] and 8.41 in assay [3].
Taken in the same sequence, the figures for `C[C@@H]1CCC[C@H](C)N1c1nnc2ccc(O[C@@H]3CC[C@H](NC(=O)Nc4cc(C(C)(C)C)nn4-c4cccc(OCCN(C)C)c4)c4ccccc43)cn12` were over 16 h, 9.52 and 9.00.
Take `C[C@@H]1CCCCN1c1nnc2ccc(O[C@@H]3CC[C@H](NC(=O)Nc4cc(C(C)(C)C)nn4-c4cccc(OCCN(C)C)c4)c4ccccc43)cn12`: in assay [1], the T1/2 worked out at 5.4 h. The negative logarithm of the IC50 (pIC50) in assay [2] is 9.70; in assay [3], 8.80.
In the case of `C[C@H]1CCCCN1c1nnc2ccc(O[C@@H]3CC[C@H](NC(=O)Nc4cc(C(C)(C)C)nn4-c4cnn(CCN5CCCOCC5)c4)c4ccccc43)cn12`, the T1/2 in assay [1] was over 16 h. Besides, the pIC50 in assay [2] was 9.40; in assay [3], 9.10.
The matching figures for `C[C@H]1CCCCN1c1nnc2ccc(O[C@@H]3CC[C@H](NC(=O)Nc4cc(C(C)(C)C)nn4-c4cccc(OCCN5CCN(C)CC5)c4)c4ccccc43)cn12`: 5.1 h, 9.52 and 8.68.
On to `Cc1ccc(-n2nc(C(C)(C)C)cc2NC(=O)N[C@H]2CC[C@@H](Oc3ccc4nnc(N5CCC(O)CC5)n4c3)c3ccccc32)cc1`, for which, in assay [1], the T1/2 was over 16 h. Also, the negative logarithm of the IC50 (pIC50) in assay [2] was 9.30; in assay [3], 8.68.
Taken in the same sequence, the figures for `CC(C)c1nnc2ccc(O[C@@H]3CC[C@H](NC(=O)Nc4cc(C(C)(C)C)nn4-c4cccc(OCCN(C)C)c4)c4ccccc43)cn12` were 0.89 h, 9.10 and 8.04.
The matching figures for `CC(C)(C)c1cc(NC(=O)N[C@H]2CC[C@@H](Oc3ccc4nnc(N5CCCCC5)n4c3)c3ccccc32)n(-c2cccc(CN3CCNCC3)c2)n1`: 5 h, 9.10 and 8.96.
The matching figures for `Cc1ccc(-n2nc(C(C)(C)C)cc2NC(=O)N[C@H]2CC[C@H](Oc3ccc4nnc(C(C)C)n4c3)CC2)cc1`: 0.09 h, 8.21 and 7.44.
As for `CN(C)CCOc1cc(-n2nc(C(C)(C)C)cc2NC(=O)N[C@H]2CC[C@@H](Oc3ccc4nnc(N5CCCCC5)n4c3)c3ccccc32)ccc1Cl`, the T1/2 in assay [1] is 3.5 h. Also, the results for the negative-log IC50 (pIC50) in assay [2] and in assay [3] were 9.70 and 8.85, respectively.
For `Cc1ccc(-n2nc(C(C)(C)C)cc2NC(=O)N[C@H]2CC[C@@H](Oc3ccc4nnc(C5CCCCC5)n4c3)c3ccccc32)cc1`, the T1/2 in assay [1] was over 16 h. The negative logarithm of the IC50 (pIC50) was 9.52 in assay [2] and 9.40 in assay [3].
Taken in the same sequence, the figures for `CC(C)(C)c1cc(NC(=O)N[C@H]2CC[C@@H](Oc3ccc4nnc(N5CCC(O)CC5)n4c3)c3ccccc32)n(-c2ccc(CO)cc2)n1` were over 16 h, 9.40 and 7.85.
The matching figures for `CC(C)c1nnc2ccc(O[C@@H]3CC[C@H](NC(=O)Nc4cc(C(C)(C)C)nn4-c4ccccc4)c4ccccc43)cn12`: 1.74 h, 10.22 and 9.30.
As for `C[C@H]1CCCCN1c1nnc2ccc(O[C@@H]3CC[C@H](NC(=O)Nc4cc(C(C)(C)C)nn4-c4ccn(CCN(C)C)n4)c4ccccc43)cn12`, the T1/2 in assay [1] was determined as 1.9 h. The results for the negative-log IC50 (pIC50) in assay [2] and in assay [3] were 9.70 and 8.57, respectively.
On to `CC(C)c1nnc2ccc(O[C@@H]3CC[C@H](NC(=O)Nc4cc(C(C)(C)C)nn4-c4cccc(OCCO)c4)c4ccccc43)cn12`, for which the T1/2 in assay [1] stood at 1.9 h. Moreover, the pIC50 in assay [2] is 9.40; in assay [3] it was 9.00.
The matching figures for `Cc1ccc(-n2nc(C(C)(C)C)cc2NC(=O)N[C@H]2CC[C@@H](Oc3ccc4nnc(N5CCN(C)CC5)n4c3)c3ccccc32)cc1`: 9 h, 9.00 and 8.60.
Taken in the same sequence, the figures for `C[C@H]1CCCCC1c1nnc2ccc(O[C@@H]3CC[C@H](NC(=O)Nc4cc(C(C)(C)C)nn4-c4cccc(OCCN5CCOCC5)c4)c4ccccc43)cn12` (stereo partly specified) were over 16 h, 9.30 and 9.10.
Taken in the same sequence, the figures for `CC(C)(C)c1cc(NC(=O)N[C@H]2CC[C@@H](Oc3ccc4nnc(N5CCCCC5)n4c3)c3ccccc32)n(-c2ccc(Cl)c(O)c2)n1` were over 16 h, 9.30 and 9.70.
In the case of `CN1CCN(Cc2ccc(-n3nc(C(C)(C)C)cc3NC(=O)N[C@H]3CC[C@@H](Oc4ccc5nnc(N6CCCCC6)n5c4)c4ccccc43)cc2)CC1`, the T1/2 in assay [1] is 1.4 h. Also, the figures for the negative-log IC50 (pIC50) in assay [2] and in assay [3] were 9.22 and 8.66, respectively.
The matching figures for `C[C@H]1CCCCN1c1nnc2ccc(O[C@@H]3CC[C@H](NC(=O)Nc4cc(C(C)(C)C)nn4-c4cnn(CCN5CCN(C)CC5)c4)c4ccccc43)cn12`: over 16 h, 9.52 and 8.49.
The matching figures for `C[C@H]1CCCCN1c1nnc2ccc(O[C@@H]3CC[C@H](NC(=O)Nc4cc(C(C)(C)C)nn4-c4cccc(OCCN(C)C)n4)c4ccccc43)cn12`: 2.9 h, 8.70 and 8.24.
Taken in the same sequence, the figures for `COCCN(C)CCn1cc(-n2nc(C(C)(C)C)cc2NC(=O)N[C@H]2CC[C@@H](Oc3ccc4nnc(N5CCCC[C@@H]5C)n4c3)c3ccccc32)cn1` were over 16 h, 9.70 and 9.05.
With `C[C@H]1CCCCN1c1nnc2ccc(O[C@@H]3CC[C@H](NC(=O)Nc4cc(C(C)(C)C)nn4-c4cnn(CCN5CCOCC5)c4)c4ccccc43)cn12`, the T1/2 in assay [1] is over 16 h. Also, the pIC50 in assay [2] is 9.30; in assay [3] it was 8.74.
Turning to `C[C@H]1CCCCN1c1nnc2ccc(O[C@@H]3CC[C@H](NC(=O)Nc4cc(C(C)(C)C)nn4-c4cnn(CCN5CCC(O)CC5)c4)c4ccccc43)cn12`, in assay [1], the T1/2 was over 16 h. For the same compound, the pIC50 in assay [2] was 9.40; in assay [3], 8.29.
Taken in the same sequence, the figures for `C[C@H]1CCCCN1c1nnc2ccc(O[C@@H]3CC[C@H](NC(=O)Nc4cc(C(C)(C)C)nn4-c4cnnc(OCCN(C)C)c4)c4ccccc43)cn12` were 1.1 h, 9.52 and 8.92.
Taken in the same sequence, the figures for `CC(C)(C)c1cc(NC(=O)N[C@H]2CC[C@@H](Oc3ccc4nnc(N5CCCCC5)n4c3)c3ccccc32)n(-c2cccc(CN3CCCCC3)c2)n1` were 1.2 h, 8.89 and 8.72.
The matching figures for `CC(C)c1nnc2ccc(O[C@@H]3CC[C@H](NC(=O)Nc4cc(C(C)(C)C)nn4-c4ccc(Cl)c(O)c4)c4ccccc43)cn12`: 0.89 h, 10.30 and 9.15.
Consider `Cc1ccc(-n2nc(C(C)(C)C)cc2NC(=O)N[C@H]2CC[C@@H](Oc3ccc4nnc(C5CCCC5)n4c3)c3ccccc32)cc1`, for which the T1/2 in assay [1] is over 16 h. The pIC50 in assay [2] is 10.00; in assay [3], 9.52.
